Numbers after ± are expanded uncertainties.
Assay: xn = mol fraction of the nth substance listed
Conditions: Gas, isochoric method

For F/C=C(\F)C(F)(F)F [(Z)-1,2,3,3,3-pentafluoro-1-propene] + CC(C)C, the specific volume (303.15 K, 207 kPa, x2 = 0.504) was 0.1216 ± 0.0004 m3/kg, the specific volume (308.15 K, 210.7 kPa, x2 = 0.504) was 0.1216 ± 0.0004 m3/kg and the specific volume (308.15 K, 303.6 kPa, x2 = 0.797) was 0.1074 ± 0.0004 m3/kg. The specific volume (308.15 K, 309.8 kPa, x2 = 0.345) was 0.0717 ± 0.0003 m3/kg, the specific volume (308.15 K, 316 kPa, x2 = 0.175) was 0.0632 ± 0.0003 m3/kg and the specific volume (308.15 K, 394.7 kPa, x2 = 0.916) was 0.0901 ± 0.0003 m3/kg. The specific volume (308.15 K, 410.6 kPa, x2 = 0.477) was 0.0585 ± 0.0004 m3/kg, the specific volume (313.15 K, 214.4 kPa, x2 = 0.504) was 0.1216 ± 0.0004 m3/kg and the specific volume (313.15 K, 309.3 kPa, x2 = 0.797) was 0.1074 ± 0.0004 m3/kg. For the same molecule, the specific volume (313.15 K, 315.5 kPa, x2 = 0.345) was 0.0717 ± 0.0003 m3/kg, the specific volume (313.15 K, 321.9 kPa, x2 = 0.175) was 0.0632 ± 0.0003 m3/kg and the specific volume (313.15 K, 402.8 kPa, x2 = 0.916) was 0.0901 ± 0.0003 m3/kg. The specific volume (313.15 K, 418.8 kPa, x2 = 0.477) was 0.0585 ± 0.0004 m3/kg, the specific volume (318.15 K, 218 kPa, x2 = 0.504) was 0.1217 ± 0.0004 m3/kg and the specific volume (318.15 K, 315 kPa, x2 = 0.797) was 0.1074 ± 0.0004 m3/kg. It also gave a specific volume (318.15 K, 321.3 kPa, x2 = 0.345) of 0.0717 ± 0.0003 m3/kg, a specific volume (318.15 K, 327.8 kPa, x2 = 0.175) of 0.0633 ± 0.0003 m3/kg and a specific volume (318.15 K, 410.7 kPa, x2 = 0.916) of 0.0901 ± 0.0003 m3/kg. For the same molecule, the specific volume (318.15 K, 426.9 kPa, x2 = 0.477) was 0.0585 ± 0.0004 m3/kg, the specific volume (323.15 K, 221.7 kPa, x2 = 0.504) was 0.1217 ± 0.0004 m3/kg and the specific volume (323.15 K, 320.6 kPa, x2 = 0.797) was 0.1074 ± 0.0004 m3/kg. For the same molecule, the specific volume (323.15 K, 327 kPa, x2 = 0.345) was 0.0717 ± 0.0003 m3/kg, the specific volume (323.15 K, 333.7 kPa, x2 = 0.175) was 0.0633 ± 0.0003 m3/kg and the specific volume (323.15 K, 418.5 kPa, x2 = 0.916) was 0.0901 ± 0.0003 m3/kg. The specific volume (323.15 K, 434.9 kPa, x2 = 0.477) was 0.0585 ± 0.0004 m3/kg, the specific volume (328.15 K, 225.3 kPa, x2 = 0.504) was 0.1217 ± 0.0004 m3/kg and the specific volume (328.15 K, 326.2 kPa, x2 = 0.797) was 0.1075 ± 0.0004 m3/kg. For the same molecule, the specific volume (328.15 K, 332.9 kPa, x2 = 0.345) was 0.0718 ± 0.0003 m3/kg, the specific volume (328.15 K, 339.5 kPa, x2 = 0.175) was 0.0633 ± 0.0003 m3/kg and the specific volume (328.15 K, 426.4 kPa, x2 = 0.916) was 0.0902 ± 0.0003 m3/kg. The specific volume (328.15 K, 442.8 kPa, x2 = 0.477) was 0.0586 ± 0.0003 m3/kg, the specific volume (333.15 K, 229 kPa, x2 = 0.504) was 0.1217 ± 0.0004 m3/kg and the specific volume (333.15 K, 331.8 kPa, x2 = 0.797) was 0.1075 ± 0.0003 m3/kg. For the same molecule, the specific volume (333.15 K, 338.6 kPa, x2 = 0.345) was 0.0718 ± 0.0003 m3/kg, the specific volume (333.15 K, 346.4 kPa, x2 = 0.175) was 0.0633 ± 0.0003 m3/kg and the specific volume (333.15 K, 434 kPa, x2 = 0.916) was 0.0902 ± 0.0003 m3/kg. The specific volume (333.15 K, 450.8 kPa, x2 = 0.477) was 0.0586 ± 0.0003 m3/kg, the specific volume (338.15 K, 232.6 kPa, x2 = 0.504) was 0.1218 ± 0.0003 m3/kg and the specific volume (338.15 K, 337.4 kPa, x2 = 0.797) was 0.1075 ± 0.0003 m3/kg. For the same molecule, the specific volume (338.15 K, 344.2 kPa, x2 = 0.345) was 0.0718 ± 0.0003 m3/kg, the specific volume (338.15 K, 351.2 kPa, x2 = 0.175) was 0.0633 ± 0.0003 m3/kg and the specific volume (338.15 K, 441.7 kPa, x2 = 0.916) was 0.0902 ± 0.0003 m3/kg. The specific volume (338.15 K, 458.7 kPa, x2 = 0.477) was 0.0586 ± 0.0003 m3/kg, the specific volume (343.15 K, 236.3 kPa, x2 = 0.504) was 0.1218 ± 0.0003 m3/kg and the specific volume (343.15 K, 342.9 kPa, x2 = 0.797) was 0.1075 ± 0.0003 m3/kg. It also gave a specific volume (343.15 K, 349.8 kPa, x2 = 0.345) of 0.0718 ± 0.0003 m3/kg, a specific volume (343.15 K, 357 kPa, x2 = 0.175) of 0.0633 ± 0.0003 m3/kg and a specific volume (343.15 K, 449.4 kPa, x2 = 0.916) of 0.0902 ± 0.0003 m3/kg. For the same molecule, the specific volume (343.15 K, 466.6 kPa, x2 = 0.477) was 0.0586 ± 0.0003 m3/kg, the specific volume (348.15 K, 239.9 kPa, x2 = 0.504) was 0.1218 ± 0.0003 m3/kg and the specific volume (348.15 K, 348.5 kPa, x2 = 0.797) was 0.1076 ± 0.0003 m3/kg. For the same molecule, the specific volume (348.15 K, 355.4 kPa, x2 = 0.345) was 0.0718 ± 0.0003 m3/kg, the specific volume (348.15 K, 362.8 kPa, x2 = 0.175) was 0.0633 ± 0.0002 m3/kg and the specific volume (348.15 K, 457 kPa, x2 = 0.916) was 0.0902 ± 0.0003 m3/kg. For the same molecule, the specific volume (348.15 K, 474.5 kPa, x2 = 0.477) was 0.0586 ± 0.0003 m3/kg, the specific volume (353.15 K, 243.6 kPa, x2 = 0.504) was 0.1218 ± 0.0003 m3/kg and the specific volume (353.15 K, 354.1 kPa, x2 = 0.797) was 0.1076 ± 0.0003 m3/kg. It also gave a specific volume (353.15 K, 361 kPa, x2 = 0.345) of 0.0718 ± 0.0003 m3/kg, a specific volume (353.15 K, 368.6 kPa, x2 = 0.175) of 0.0634 ± 0.0002 m3/kg and a specific volume (353.15 K, 464.6 kPa, x2 = 0.916) of 0.0903 ± 0.0003 m3/kg. The specific volume (353.15 K, 482.3 kPa, x2 = 0.477) was 0.0586 ± 0.0003 m3/kg, the specific volume (358.15 K, 247.3 kPa, x2 = 0.504) was 0.1219 ± 0.0003 m3/kg and the specific volume (358.15 K, 359.6 kPa, x2 = 0.797) was 0.1076 ± 0.0003 m3/kg. The specific volume (358.15 K, 366.6 kPa, x2 = 0.345) was 0.0719 ± 0.0003 m3/kg, the specific volume (358.15 K, 374.3 kPa, x2 = 0.175) was 0.0634 ± 0.0002 m3/kg and the specific volume (358.15 K, 472.2 kPa, x2 = 0.916) was 0.0903 ± 0.0003 m3/kg. For the same molecule, the specific volume (358.15 K, 490.2 kPa, x2 = 0.477) was 0.0586 ± 0.0003 m3/kg, the specific volume (363.15 K, 251 kPa, x2 = 0.504) was 0.1219 ± 0.0003 m3/kg and the specific volume (363.15 K, 365.1 kPa, x2 = 0.797) was 0.1076 ± 0.0003 m3/kg. It also gave a specific volume (363.15 K, 372.2 kPa, x2 = 0.345) of 0.0719 ± 0.0003 m3/kg, a specific volume (363.15 K, 380.1 kPa, x2 = 0.175) of 0.0634 ± 0.0002 m3/kg and a specific volume (363.15 K, 479.8 kPa, x2 = 0.916) of 0.0903 ± 0.0003 m3/kg. It also gave a specific volume (363.15 K, 497.9 kPa, x2 = 0.477) of 0.0586 ± 0.0003 m3/kg, a specific volume (368.15 K, 254.6 kPa, x2 = 0.504) of 0.1219 ± 0.0003 m3/kg and a specific volume (368.15 K, 370.4 kPa, x2 = 0.797) of 0.1077 ± 0.0003 m3/kg. It also gave a specific volume (368.15 K, 377.8 kPa, x2 = 0.345) of 0.0719 ± 0.0003 m3/kg, a specific volume (368.15 K, 385.9 kPa, x2 = 0.175) of 0.0634 ± 0.0002 m3/kg and a specific volume (368.15 K, 487.3 kPa, x2 = 0.916) of 0.0903 ± 0.0003 m3/kg. It also gave a specific volume (368.15 K, 505.7 kPa, x2 = 0.477) of 0.0587 ± 0.0003 m3/kg, a specific volume (373.15 K, 258.3 kPa, x2 = 0.504) of 0.122 ± 0.0003 m3/kg and a specific volume (373.15 K, 375.9 kPa, x2 = 0.797) of 0.1077 ± 0.0003 m3/kg. It also gave a specific volume (373.15 K, 383.4 kPa, x2 = 0.345) of 0.0719 ± 0.0003 m3/kg, a specific volume (373.15 K, 391.6 kPa, x2 = 0.175) of 0.0634 ± 0.0002 m3/kg and a specific volume (373.15 K, 494.9 kPa, x2 = 0.916) of 0.0903 ± 0.0003 m3/kg. For the same molecule, the specific volume (373.15 K, 513.5 kPa, x2 = 0.477) was 0.0587 ± 0.0003 m3/kg, the specific volume (378.15 K, 262 kPa, x2 = 0.504) was 0.122 ± 0.0004 m3/kg and the specific volume (378.15 K, 381.6 kPa, x2 = 0.797) was 0.1077 ± 0.0003 m3/kg. It also gave a specific volume (378.15 K, 389 kPa, x2 = 0.345) of 0.0719 ± 0.0003 m3/kg, a specific volume (378.15 K, 397.3 kPa, x2 = 0.175) of 0.0634 ± 0.0002 m3/kg and a specific volume (378.15 K, 502.4 kPa, x2 = 0.916) of 0.0904 ± 0.0003 m3/kg. The specific volume (378.15 K, 521.3 kPa, x2 = 0.477) was 0.0587 ± 0.0003 m3/kg, the specific volume (383.15 K, 265.6 kPa, x2 = 0.504) was 0.122 ± 0.0004 m3/kg and the specific volume (383.15 K, 387 kPa, x2 = 0.797) was 0.1077 ± 0.0003 m3/kg. For the same molecule, the specific volume (383.15 K, 394.6 kPa, x2 = 0.345) was 0.0719 ± 0.0003 m3/kg, the specific volume (383.15 K, 403.1 kPa, x2 = 0.175) was 0.0634 ± 0.0002 m3/kg and the specific volume (383.15 K, 509.9 kPa, x2 = 0.916) was 0.0904 ± 0.0003 m3/kg. For the same molecule, the specific volume (383.15 K, 529 kPa, x2 = 0.477) was 0.0587 ± 0.0003 m3/kg.

From the NIST ThermoML archive (doi:10.1021/acs.jced.8b00921)
